Measured values from PubChem BioAssay AID651557 (The Scripps Research Institute Molecular Screening Center, 2012).
Activity calls are given as the source filed them.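 Rule for the calls: active = IC50 half-maximal inhibitory concentration at most 10 µM; inactive = IC50 above 10 µM.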

Molecular target: Melanocortin receptor 4 (Homo sapiens) (UniProt P32245)
Assay: inhibition of agonist-driven MC4R beta-arrestin coupling – luminescence, biased ligand project, U2OS cells, late-stage follow-up (AID 651557)
Conditions: U2OS MC4R beta-arrestin recruitment, beta-gal complementation luminescence

Sequence of Melanocortin receptor 4 (Homo sapiens) (P32245 whole entry, looked up): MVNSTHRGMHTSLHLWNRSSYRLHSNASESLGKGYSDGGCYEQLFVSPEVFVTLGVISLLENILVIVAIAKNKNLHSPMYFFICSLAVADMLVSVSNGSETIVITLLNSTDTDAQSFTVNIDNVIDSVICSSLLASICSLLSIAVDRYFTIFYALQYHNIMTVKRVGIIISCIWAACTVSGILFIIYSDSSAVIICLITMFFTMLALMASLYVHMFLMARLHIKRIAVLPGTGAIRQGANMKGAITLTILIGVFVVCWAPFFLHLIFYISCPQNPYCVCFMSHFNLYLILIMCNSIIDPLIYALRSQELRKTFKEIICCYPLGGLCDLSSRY

SMILES | IC50
COc1ccc(N(C(C)=O)C(C(=O)NC2CCCC2)c2cccs2)cc1OC (configuration not stated) | > 50 µM (inactive)
CNC(=O)c1cc(Oc2ccc(NC(=O)CNc3ccc(Cl)c(C(F)(F)F)c3)cc2)ccn1 | > 50 µM (inactive)
CNC(=O)c1cc(Oc2ccc(NCC(=O)Nc3ccc(Cl)c(C(F)(F)F)c3)cc2)ccn1 | > 50 µM (inactive)
CCC1CCCCN1S(=O)(=O)c1ccc(NC(=O)c2ccnc(SC)n2)cc1 (configuration not stated) | > 50 µM (inactive)
O=C1c2cccc3cccc(c23)C(=O)N1CC1CCN(CC(O)COc2ccc3ccccc3c2)CC1 (configuration not stated) | > 50 µM (inactive)
Cc1ccccc1CN1Cc2cnnn2-c2ccccc2C1C#N (configuration not stated) | inactive
C#CC(=O)N(c1ccc(OC)c(OC)c1)C(C(=O)NC1CCCC1)c1cccs1 (configuration not stated) | inactive
CC(=O)c1ccc(Nc2nc3ccc(C(=O)N(CCC(C)C)CCC(C)C)cc3n2CCCN2CCCCC2)cc1 | 0.00232 µM
CCC1CCCCN1S(=O)(=O)c1ccc(NC(=O)c2ccccc2)cc1 (configuration not stated) | > 50 µM (inactive)
CC1CCCCN1S(=O)(=O)c1ccc(NC(=O)c2nc(S(C)(=O)=O)ncc2Cl)cc1 (configuration not stated) | 3.55 µM
COc1ccccc1C1(CCNC(C)c2cccs2)CCOC(C(C)C)C1 (configuration not stated) | 6.73 µM
CCC1CCCCN1S(=O)(=O)c1ccc(NC(=O)c2cccc(S(C)(=O)=O)c2)cc1 (configuration not stated) | > 50 µM (inactive)
